Key:
[1] = system: HSC/progenitors from normal bone marrows; assay: CFU and LTC-IC assays, normal bone marrow; format: cell-based, human; settings: for colonies formation: tissue culture derived from normal bone marrows; for total number of cells at end of 1st part of LTC-IC assay: versus untreated samples
Description: (§1) FIGS. 2A-2G provide graphs and images showing N2N1 and VA support HSC/progenitors populations under pressure of differentiation and tissue culture stress in vitro and in vivo. General schema of CFU (A) and LTC-IC assays (B). […] Representative result of three NBM is shown. (D) The morphology of cells at the end of 1st part of LTC-IC assay is shown. The total number of cells at this step of experiment was always larger in the samples treated with experimental drugs. (E) Treatment of mice with N2N1 promotes maintenance of normal HSC in vivo. Competitive repopulation assay performed on CD45.2 mice treated with N2N1. Summary of four animals, three hematopoietic tissues. […] Representative result of three patients is shown.
While these compounds may have many applications, the inventors have focused on potential usage of these agents to improve the function of HSC in BMF. They have first applied them in a battery of tissue culture assays measuring i) exhaustion kinetics of HSC and ii) hematologic toxicity. […] The inventors then focused our studies on HSC performance measured in CFU assay and in LTC-IC (FIG. 2), the best in vitro surrogate assay for the quantification and functional assessment of HSCs. The potential positive impact of identified pro-survival catalysts on viability and propagation of HSC was evaluated in methylcellulose cultures, classic CFU assay, long-term culture colony-initiating (LTC-IC) cell assays (FIGS. 2A, B and C) and competitive repopulation assay based on CD45.1/2 mouse model (FIG. 2E).
As a starting point for clinical application of identified redox catalysts, the inventors tested them on their ability to stimulate hematopoiesis in normal and damaged bone marrow cells, isolated from the patients with severe AA (FIGS. 2C and F). Very promising data was obtained, confirming the original idea that these small molecules can support propagation of both normal HSC and stem cells presented in damaged or disease bone marrow.

[2] = system: hematopoietic colony assays; assay: Hematologic toxicity in hematopoietic colony assays; format: cell-based
Description: They have first applied them in a battery of tissue culture assays measuring i) exhaustion kinetics of HSC and ii) hematologic toxicity. […] The inventors then focused our studies on HSC performance measured in CFU assay and in LTC-IC (FIG. 2), the best in vitro surrogate assay for the quantification and functional assessment of HSCs.

HSC = assay: Competitive repopulation assay, CD45.1/2 mouse model; format: in vivo; settings: CD45.2 mice, one month in drinking water, ~2.0 mg/kg
Description: as §1
The potential positive impact of identified pro-survival catalysts on viability and propagation of HSC was evaluated in competitive repopulation assay based on CD45.1/2 mouse model, a “gold standard” for HSC performance.

NHDF = assay: SAβG staining of NHDF at late passages; format: cell-based, human
Description: FIGS. 1A-1I provide graphs and images showing a new high throughput method for simultaneous detection of senescence associated SAβG activity and ATP in culture of normal pre-aged cells identified two potent anti-aging scaffolds. (A). General schema of HTS. (B). […] (C). Structures and corresponding tautameric forms of lead compounds. (D) Evaluation of possible genotoxic effect of experimental drugs in modified Ames test. 4-Nitroquinoline 1-oxide (4NQO) was used as a positive control. […] The general schema of RLS measurement in different cell types. (F) VA and N2N1 considerably extend RLS of normal human fibroblasts (NHDF) and stromal cells isolated from human normal bone marrow. (G). […] (I). Upper panel: Morphological appearance of NHDF at late passages with or without treatment. Lower panel: Cells were also fixed in para-formaldehyde and stained to detect SAβG.
The inventors developed a new high-throughput screening (HTS) method for identification of anti-aging drugs (FIG. 1). The novel method was specifically designed for simultaneous detection of β-galactosidase activity in cell lysate followed by ATP detection by standard luciferase based assay. […] Altogether, the procedure allowed a simultaneous quantifiable detection of senescence associated β-galactosidase (SAβG) activity and evaluation of ATP level as a sign of improved proliferative capacity or cytotoxicity. […]

[3] = system: bone marrow cells from aplastic anemia patients; assay: Colony assay, aplastic anemia bone marrow; format: cell-based, human; settings: tissue culture derived from aplastic anemia patients
Description: While performing a multidrug screen for the agents that could simultaneously decrease senescence and overcome proliferative block in pre-senescent mesenchymal cells, the inventors identified two promising lead compounds violuric acid (VA) and 1-naphthoquinone-2-monoxime (N2N1). […] In term of hematopoietic stem cells (HSC) these agents prolonged the availability of HSC in methylcellulose (replicative/serial re-plating) experiments, long-term culture initiating cell assays (LTC-IC) and increased the performance of HSC in a competitive repopulation assay, the CD45.1/2 model. Furthermore, the inventors observed colonies formation in methylcellulose colony assay, after application of these drugs to the mononucleocyte fraction of bone marrow isolated from the patients diagnosed with severe AA. […] These compounds belong to a family of redox catalysts with unique chemical structure that shares a combined electrophile-nucleophile potential, a feature that renders these molecules effective anti-aging treatment in various biological model systems.
FIGS. 2A-2G provide graphs and images showing N2N1 and VA support HSC/progenitors populations under pressure of differentiation and tissue culture stress in vitro and in vivo. General schema of CFU (A) and LTC-IC assays (B). […] Representative result of three NBM is shown. (D) The morphology of cells at the end of 1st part of LTC-IC assay is shown. […]

[4] = Non-enzymatic electron transfer from NAD(P)H to oxidized glutathione; format: biochemical; settings: potassium phosphate buffer pH 7.0, 37° C.
Experimental: FIGS. 4A 4B provide graphs and schemes showing VA's mechanism of action. […] (A) Different concentrations of VA were incubated with GssG in potassium phosphate buffer at pH 7.0, 37° C. […] The effective concentrations of VA were similar to the detected for the extension of RLS in normal or progeroid cells. (B) The proposed molecular mechanism of glutathione reduction catalyzed by VA. The slightly acidic buffers (pH 7.0) supplemented with potassium (100 mM) were the preferable reaction conditions.
Lead compounds were tested on their possible catalytic amelioration of enzyme kinetics with all above mentioned proteins: recombinant and presented in cellular lysates.

O=C1/C(=N/O)C=Cc2ccccc21 [N2N1, 1-naphthoquinone-2-monoxime]
colonies formation [1]: promote colonies formation
total number of cells at end of 1st part of LTC-IC assay [1]: always larger
LD50 [2]: 15 µM
HSC number / repopulation capacity (HSC): increased number of HSC or/and increased repopulation capacity
number of SAβG positive cells (NHDF): substantially decreased
colonies formation [3]: promote colonies formation

O=C1NC(=O)C(=NO)C(=O)N1 [VA, 2,4,5,6(1H,3H)-pyrimidine-tetrone 5-oxime]
colonies formation [1]: promote colonies formation
total number of cells at end of 1st part of LTC-IC assay [1]: always larger
rate of NAD(P)H oxidation by GssG [4]: substantially increase the reaction rate
LD50 [2]: 5000 µM
number of SAβG positive cells (NHDF): substantially decreased
colonies formation [3]: promote colonies formation

— patent US11723907B2, “Anti-aging compounds” (THE CLEVELAND CLINIC FOUNDATION, priority 2017, dated 2023)
